In patent publication US5633230A, “Treatment of cytomegalovirus infection” (priority 1994, dated 1997):

Legend:
[1] = system: CMV strain AD-169; assay: plaque reduction assay, CMV AD-169 in MRC-5 cells; assay type: cell-based, human CMV; settings: Human betaherpesvirus 5, AD169, MRC5, CMV AD-169, MRC-5 (human embryonic lung), 24 h drug pretreatment
Protocol: (§1) The following procedures were then used to determine inhibitory effects of AV-9 on the replication of CMV. […] This was accomplished by diluting the stock peptide solution in growth medium (10% fetal bovine serum and 10 μg/ml gentamicin in Dulbecco's MEM (DMEM)) used to overlay the monolayers.
(§2) After pretreatment with AV-9, the monolayers were overlaid with 0.1 ml log10 dilutions of virus (CMV strain AD-169) ranging from 10^-1 to 10^-6. Virus was then allowed to adsorb for 1 hour at 37° C. The virus inoculum was removed and the monolayers were overlayed with DMEM containing 2% FBS, 10 ug/ml gentamicin and a specified concentration of AV-9. Virus was next allowed to replicate for 7 to 10 days until the plaques were judged to be well developed, and then the monolayers were fixed and stained with a solution of 1% crystal violet in 1% formaldehyde,70% ethanol. Finally, plaques (each representing a single viable virion) were counted and checked microscopically.
(§3) In a like manner, plaque reduction assays were also performed against other CMV strains and another CMV host, with comparison against ganciclovir (GCV) and foscarnet (FCV).

[2] = system: CMV strain PFA^r D100; assay: plaque reduction assay, foscarnet-resistant strain PFA^r D100; assay type: cell-based, human CMV; settings: Human betaherpesvirus 5, MRC5
Protocol: (§4) The anti-CMV activity of peptide AV-9 was evaluated against two ganciclovir-resistant and two foscarnet-resistant laboratory strains of human CMV in the continuous, human embryonic lung cell line MRC-5.
(§5) To perform the studies, peptide AV-9 was dissolved as a solid in sterile, deionized water to a final stock concentration of 10 mM. This stock solution was subsequently diluted in cell culture medium to obtain the test concentrations used in the study. Ganciclovir (GCV) was dissolved in sterile, deionized water, and the drug concentration measured spectrophotometrically (7.8mM). Foscarnet (phosphonoformic acid, PFA) was dissolved in sterile, deionized water to a final concentration of 100 mM. Aliquots of the stock solutions were stored at -70° C.
(§6) Drug-resistant human CMV strains 759^r D100, GDG^r K17, PFA^r D100 and PFA^r B300 were obtained from Dr. Donald M. Coen, Harvard Medical School, Boston, Mass. […]
(§7) Anti-CMV activity of peptide AV-9, ganciclovir (GCV) and foscarnet (PFA) was assessed by standard plaque reduction assay using 24-well microtiter plates. […]
(§8) MRC-5 cells (4-5×10^5 per well) were grown for 24 hours at 37° C. in 5% CO2 atmosphere in D-MEM/F-12FBS medium containing varying concentrations of drug. […] Vital plaques were counted under a microscope after removing the culture medium from the wells, staining the cells with 1.1% Crystal Violet solution, and washing twice with tap water. […]

[3] = system: CMV strain PFA^r B300; assay: plaque reduction assay, foscarnet-resistant strain PFA^r B300; assay type: cell-based, human CMV; settings: Human betaherpesvirus 5, MRC5
Protocol: as §4, §5, §6, §7, §8

[4] = system: CMV strain AD-169; assay: CPE assay, CMV AD-169 in HFF cells; assay type: cell-based; settings: Human betaherpesvirus 5, AD169, CMV AD-169, HFF (human foreskin fibroblast), without 24 h drug pretreatment
Text: *CPE assay, all others are plaque reduction assays.

[5] = system: CMV strain AD-169; assay: plaque reduction assay, CMV AD-169 in HFF cells; assay type: cell-based, human CMV; settings: Human betaherpesvirus 5, AD169, CMV AD-169, HFF
Protocol: as §1
as §2, with “After pretreatment with AV-9, the monolayers were overlaid with 0.1 ml log10 dilutions of virus (CMV strain AD-169) ranging from 10^-1 to 10^-6.” left out
as §3

[6] = system: CMV strain 759^r D100; assay: plaque reduction assay, ganciclovir-resistant strain 759^r D100; assay type: cell-based, human CMV; settings: Human betaherpesvirus 5, MRC5
Protocol: as §4, §5, §6, §7, §8

[7] = system: CMV strain GDG^r K17; assay: plaque reduction assay, ganciclovir-resistant strain GDG^r K17; assay type: cell-based, human CMV; settings: Human betaherpesvirus 5, MRC5
Protocol: as §4, §5, §6, §7, §8

[8] = system: Smith strain of murine CMV; assay: murine CMV infection in cyclophosphamide-immunosuppressed mice; assay type: in vivo, BALB/c mice
Text: This immunosuppression model mimics the human patient situation, wherein the HCMV-induced disease in immunosuppressed individuals can often be fatal. The particular model used for evaluating potential antiviral activity has been described by Smee et al in J. Infect. Dis., 1991, 164: 958.
The Smith strain of murine CMV, obtained originally from the American Type Culture Collection (Rockville, Md.) was used. A mouse salivary gland preparation was used for the virus pool. An inoculation of 2×10^4 plaque forming units of the virus was used in the antiviral study. Female BALB/c mice weighing 10-12 g were quarantined 24 hr prior to use, and maintained on Wayne Lab Blox and tap water ad libitum the duration of the study.
Ganciclovir (DHPG) was purchased from a commercial source, and cyclophosphamide was purchased from Sigma Chemical Co. (St. Louis, Mo.).
To determine tissue virus titre, homogenates of infected mouse organs were titrated for virus using C127/I cells in 96-well microplates. Each tissue sample was homogenized and titrated separately with 3 micro wells used per dilution; plates were read by microscopic examination for viral-induced cytopathic effect, with 50% end points determined by the Reed-Muench method. Mean viral titers were expressed at 50% cell culture infectious doses (CCID50)/gram of tissue.
For statistical evaluation, increases in mean day to death and reductions in viral titers were assessed using the two-tailed Mann-Whitney U test. Total survivor increases were evaluated by chi square analysis with Yates'.

[9] = toxicity control mice, immunosuppressed, uninfected
Protocol: The mice were immunosuppressed by intraperitoneal (i.p.) injection with 100 mg/kg/day of cyclophosphamide administered on days -1, +3, +6, +10, +14 and +18 relative to virus inoculation. […] In a second portion of the study, the compound was administered i.p. in a dose of 0.1 mg/kg/day once daily from day -2 through +10. Ganciclovir in a dose of 50 mg/kg/day was injected i.p. once daily for 10 days beginning 24 hr post-virus exposure (days +1→+10). A total of 15 infected mice/dose were used. […] Five toxicity control mice were used at each dose; these mice were treated in parallel with the infected mice, and were weighed on the initial day of treatment and again 24 after the final treatment. […] Normal controls were weighed and held in parallel with the toxicity controls.

[10] = 50 mg/kg/day i.p. days +1 to +10, 9 days after virus challenge

Row | Compound | IC50 [1] [µM] | IC50 [2] [µM] | IC50 [3] [µM] | IC50 [4] [µM] | IC50 [5] [µM] | IC50 [6] [µM] | IC50 [7] [µM] | days after initiation of infection until first deaths ([8]; 50 mg/kg/day i.p. days +1 to +10) [days] | Tissue Virus Titer ± S.D., Lung [8, 10] [log10 CCID50/g] | Tissue Virus Titer ± S.D., Salivary Gland [8, 10] [log10 CCID50/g] | Tissue Virus Titer ± S.D., Spleen [8, 10] [log10 CCID50/g] | Surv/Total ([8]; infected mice, 50 mg/kg/day i.p., days +1 through +10) | Mean Day to Death ± S.D. ([8]; infected mice, 50 mg/kg/day i.p., days +1 through +10, P<0.01 vs saline) [days] | Mean Body Weight Change ([9]; 50 mg/kg/day i.p. days +1 to +10, start of treatment to 24 hr after final treatment) [g] | Surv/Total ([9]; toxicity controls, 50 mg/kg/day i.p., days +1 through +10)
1 | O=C(O)P(=O)(O)O [FCV, phosphonoformic acid] | 96 | 234 | 385 |  |  |  |  |  |  |  |  |  |  |  | 
2 | Nc1nc2c(ncn2COC(CO)CO)c(=O)[nH]1 [GCV, 9-[(1,3-dihydroxy-2-propoxy)methyl]guanine, reference compound] |  |  |  | 5.8 | 2 | 30.5 | 6.1 | ≥ 21 | 0 ± 0.0 | 3.5 ± 0.9 | 0.5 ± 1.2 | 0/10 | 22.9 ± 1.1 | 4.2 | 5/5
